In US11781160B2, “Methods for the production of methacrylates” (priority 2018, dated 2023):

What was measured:
[1] = test system: gene transcription in strain 5; assay: Transcriptome analysis with added BMA, strain 5
Protocol: Transcriptome analysis was carried out to characterize transcriptional activity in mutant microorganisms using standard methods.
Sample Preparation • 1) Streak strains onto fresh MSX agar (15 g/L) plates directly from the cryostocks and incubate overnight at 37° C. • 2) Isolate single colonies and inoculate pre-cultures in MSX, using 50 ml shake flasks. Incubate overnight at 37° C. and 250 rpm. • 3) Inoculate cultures in MSX to an initial OD600 of 0.05, using 250 mL pyrex shake flasks with 24/29 neck join. Incubate at 37° C. and 250 rpm. Do 4 biological replicates (3 replicates for sequencing plus one backup)—4 flasks per strain. • 4) Seal shake flasks with sterile Suba seals. To monitor OD, take samples using a sterile syringe and needle after first swabbing the Suba seals with 70% ethanol. Monitor OD. • 5) When OD reaches 0.3, collect first sample for RNA extraction (“before” sample) into a pre-chilled falcon. Keep samples on ice. • 6) Immediately after, add 20% (v/v) BMA. Re-incubate cultures. • 7) Quickly process the samples according to the RNeasy kit protocol, until step 6 of protocol 1. Always keep samples on ice and store it at −80° C. until further use, if possible, flash freeze in liquid nitrogen it before storing. • 8) One hour after the first sample collection/BMA addition, collect the second sample for RNA extraction (“after” sample). Proceed as explained before. • 9) Continue to monitor the OD until the cultures reach 24 h. • To summarise, each strain tested will have 6 samples to send for sequencing, 3 collected right before the addition and 3 collected one hour after, plus 1 “back-up” for before and after, in case something goes wrong during extraction (8 samples total). Besides the WT strain with the addition of BMA, samples were also collected from a WT culture with no BMA, one hour after reaching OD of 0.3, as a control.
Transcription was compared for a double mutant and the wild-type in the presence and absence of BMA relative to the level in the wild type in the absence of BMA. For the avoidance of doubt the level in the table is the ratio of the level in the strain under the BMA exposure relative to the level in the wild type in the absence of added BMA.

[2] = test system: E. coli BW25113 isolate 19-marR(V84G) rpoC(R1075C) ompR(R15S) acrB(T3791) acrR(indels); assay: Growth kinetics of isolated strain 19 with 20% v/v BMA
[3] = test system: E. coli BW25113 isolate 5-soxR(Leu139X), 580116(G > T) acrR(indels); assay: Growth kinetics of isolated strain 5 with 20% v/v BMA
[4] = test system: E. coli BW25113 isolate 21-marR(V84G) rpoC(R1075C) rpoC(A787V) ompR(R15S) acrB(V901l) acrR(indels); assay: Growth kinetics of isolated strain 21 with 20% v/v BMA

C=C(C)C(=O)OCCCC [BMA, butyl 2-methylprop-2-enoate]
IdhA transcription level relative to wild type without BMA [1]: 18.24
acrA transcription level relative to wild type without BMA [1]: 6.28
acrB transcription level relative to wild type without BMA [1]: 7.49
adiY transcription level relative to wild type without BMA [1]: 24.79
ariR transcription level relative to wild type without BMA [1]: 21.79
asr transcription level relative to wild type without BMA [1]: 160.42
bssR transcription level relative to wild type without BMA [1]: 20.35
ibpA transcription level relative to wild type without BMA [1]: 43.39
ibpB transcription level relative to wild type without BMA [1]: 174.50
narG transcription level relative to wild type without BMA [1]: 47.85
nirB transcription level relative to wild type without BMA [1]: 34.19
nirD transcription level relative to wild type without BMA [1]: 16.69
pspA transcription level relative to wild type without BMA [1]: 23.32
pspB transcription level relative to wild type without BMA [1]: 16.87
pspD transcription level relative to wild type without BMA [1]: 14.10
pspc transcription level relative to wild type without BMA [1]: 16.55
raiA transcription level relative to wild type without BMA [1]: 20.11
rmf transcription level relative to wild type without BMA [1]: 15.45
soxS transcription level relative to wild type without BMA [1]: 41.81
spy transcription level relative to wild type without BMA [1]: 20.88
ybfA transcription level relative to wild type without BMA [1]: 20.19
ybhG transcription level relative to wild type without BMA [1]: 18.33
ybiH transcription level relative to wild type without BMA [1]: 15.30
ydgU transcription level relative to wild type without BMA [1]: 48.46
yhjx transcription level relative to wild type without BMA [1]: 105.59
yibT transcription level relative to wild type without BMA [1]: 29.57
ymgA transcription level relative to wild type without BMA [1]: 16.41
ymgC transcription level relative to wild type without BMA [1]: 17.15
ynfM transcription level relative to wild type without BMA [1]: 40.65
yohk transcription level relative to wild type without BMA [1]: 16.04
Growth rate [2]: 0.701 ± 0.007 h⁻¹
Lag time [2]: 5 h
Max cell concentration [2]: 0.653 ± 0.023 g/L
Growth rate [3]: 0.625 ± 0.052 h⁻¹
Lag time [3]: 5 h
Max cell concentration [3]: 0.597 ± 0.096 g/L
Growth rate [4]: 0.703 ± 0.030 h⁻¹
Lag time [4]: 5 h
Max cell concentration [4]: 0.438 ± 0.022 g/L
